According to US8168596B2, “Use of cycloartane compounds for treating arthritis” (NuLiv Holding Inc., priority 2008, dated 2012):

Assays:
[1] = test system: MMP-1; assay: Zymography of MMP-1 from pre-treated SW1353 cells; assay type: cell-based, human; details: PMA-pre-treated SW1353; 0.1 μM, 24 h
Protocol: (§1) At the beginning of the experiment, the cells were pre-treated with 100 ng/mL PMA or 10 ng/mL IL-1β for 24 hours. The cells were then treated with 0.1 μM Dexamethasone, various astragaloside compounds (0.1 μM) or extracts of Astragalus membranaceous (1 μg/mL) at indicated dosages for another 24 hours. For control sample, 0.1% DMSO was used as a negative control for these experiments. The conditioned culture mediums were then centrifuged, 2-fold concentrated and collected for assay of collagens or MMPs secreted into the culture medium.
(§2) The proteolytic activities of MMPs from SW1353 cells were measured essentially as described previously (Circ Res, 1999; 85:906-911). The cells were lysed in lysis buffer (1% Triton X-100, 50 mM Tris-Cl, pH 7.4, 180 mM NaCl, 1 mM EDTA). The samples were measured for their protein concentration using the bicinchoninic acid (BCA) protein assay kit as described. Samples of concentrated conditioned medium and cell lysates were mixed with non-reducing electrophoresis loading buffer and subjected to electrophoresis under non-reducing conditions. The electrophoresis was carried out on a 10% SDS-PAGE co-polymerized with 2 mg/mL gelatin or casein (Sigma, St. Louis, Mo. USA). For zymographic analysis of pro-MMP-2 and activated MMP-2, the total 20 μg of culture medium were used for electrophoresis. Following electrophoresis, renaturation of the proteins was achieved by incubating the gels twice in 25 g/L Triton X-100 at room temperature for 10 min. Subsequently the gels were incubated in 50 mM Tris-HCl, pH 7.5 containing 0.2 M NaCl, 0.02% Brij35 and 10 mM CaCl2 at 37° C. for 18 hours. After the gels were stained with Coomassie Brilliant Blue R-250 and destained, zones of proteolytic activities became visible as transparent bands in the stained gel. In order to obtain higher sensitivity, the gels were further destained in a solution of 1% Triton X-100 (1 to 2 hours). This procedure increased the signal-to-noise ratio, allowing the visualization of faint gelatinase bands at 92 kDa, 125 kDa and greater than 200 kDa. Zymograms were read using a Molecular Dynamics (Sunnyvale, Calif., USA) computing laser densitometer with Image Quant software.

[2] = test system: MMP-13; assay: Western blot of MMP-13 in PMA- or IL-1β-pre-treated SW1353 cells (Example 6); assay type: cell-based, human; details: 0.1 μM, 48 h
Protocol: (§3) The cells were then plated on 6-cm dishes at a density of 1×10^6 cells/dish for 24 hours prior to any treatment. At the beginning of the experiment, the cells were pre-treated with 100 ng/mL PMA or 10 ng/mL IL-1β for 24 hours. The cells were then treated 0.1 μM Dexamethasone with, various astragaloside compounds (0.1 μM) or extracts of Astragalus membranaceous (1 μg/mL) at indicated dosages for another 48 hours. For control sample, 0.1% DMSO was used as a negative control for these experiments. The conditioned culture mediums were then centrifuged, 2-fold concentrated and collected for assay of collagens or MMPs secreted into the culture medium.
Western blotting analysis was carried out on both cultured medium and cell lysates, as follows. The cells were washed and lysed in 0.2 mL of lysis buffer (1% NP-40, 50 mM Tris-HCl, pH 7.4, 180 mM NaCl, 1 mM EDTA, 1 mM PMSF, 1 mM NaF, 10 mM Na3VO4) for 30 min at 4° C. After centrifuging at 17500 g for 15 min, the supernatants of cell lysate were also collected. Protein concentration of the samples were measured using the bicinchoninic acid (BCA) protein assay kit according to the manufacturer's protocol (Pierce, Rockford, Ill., USA). Equal amount of protein samples of concentrated conditioned medium (100 μg) or cell lysate supernatants (50 μg) were mixed with an appropriate volume of 4×SDS sampling buffer and separated by 8% SDS-PAGE gel. The protein bands separated in the SDS-PAGE gel were blotted onto a polyvinylidene fluoride (PVDF) membrane. The blotted PVDF membrane was washed twice and blocked in freshly prepared Tris-buffered saline (TBS) containing 0.1% Tween-20 and 7% skim milk (TBST) for 2 hours at room temperature. […] Horseradish peroxidase-conjugated anti-goat antibody was used as secondary antibody. Signals were visualized by an enhanced chemiluminescence kit (Clonetech, Palo Alto, Calif., USA) followed by exposure to X-ray films.

[3] = test system: MMP-2; assay: Zymography of MMP-2 from pre-treated SW1353 cells; assay type: cell-based, human; details: PMA-pre-treated SW1353; 0.1 μM, 24 h
Protocol: as §1, §2

[4] = test system: HCH cells; assay: Glucosamine uptake assay; assay type: cell-based, human; details: astragalosides 0.1 μM, 24 h, Ctrl 1.00
Protocol: The HCHs were cultured as described above in Example 7. For the glucosamine uptake test, HCH cells were seeded into 24-well plate at a density of 3×10^4 cells per well and cultured for 24 hours. The cells were then treated in the absence (solvent control) or presence of the astragalosides (0.1 μM) or Astragalus membranaceous extracts (1.0 μg/mL) for another 24 hours. The treated cells were then washed twice with PBS and incubated in glucose and serum free medium (GSFM). After 2 hours, the cells were replaced with fresh GSFM containing 0.2 μCi of [^14C]-Glucosamine (American Radiolabelled Chemicals Inc, ARC, St. Louis, Mo., USA). At the designated time interval, the cells were washed twice with GSFM containing cold glucosamine and then lysed in 200 μL of 2% SDS. Cell lysates were centrifuged at 15000 g for 15 min. Intracellular uptaken glucosamine was determined by transferring 10 μL of the cell lysate to filter-bottomed UniFilter plates (Perkim-Elmer) and counting. The samples were measured for their protein concentration using the BCA protein assay kit as described above. The amount of glucosamine accumulated in the cells was calculated and normalized to protein concentration and uptake rate was expressed as counts per minute per microgram of cell protein (cpm/min/μg).

[5] = test system: MMP-9; assay: Zymography of MMP-9 from pre-treated SW1353 cells; assay type: cell-based, human; details: PMA-pre-treated SW1353; 0.1 μM, 24 h
Protocol: as §1, §2

[6] = test system: MMP-1; assay: Western blot of MMP-1 in PMA- or IL-1β-pre-treated SW1353 cells (Example 6); assay type: cell-based, human; details: 48 h
Protocol: as §3
Western blotting analysis was carried out on both cultured medium and cell lysates, as follows. The cells were washed and lysed in 0.2 mL of lysis buffer (1% NP-40, 50 mM Tris-HCl, pH 7.4, 180 mM NaCl, 1 mM EDTA, 1 mM PMSF, 1 mM NaF, 10 mM Na3VO4) for 30 min at 4° C. After centrifuging at 17500 g for 15 min, the supernatants of cell lysate were also collected. Protein concentration of the samples were measured using the bicinchoninic acid (BCA) protein assay kit according to the manufacturer's protocol (Pierce, Rockford, Ill., USA). Equal amount of protein samples of concentrated conditioned medium (100 μg) or cell lysate supernatants (50 μg) were mixed with an appropriate volume of 4×SDS sampling buffer and separated by 8% SDS-PAGE gel. The protein bands separated in the SDS-PAGE gel were blotted onto a polyvinylidene fluoride (PVDF) membrane. The blotted PVDF membrane was washed twice and blocked in freshly prepared Tris-buffered saline (TBS) containing 0.1% Tween-20 and 7% skim milk (TBST) for 2 hours at room temperature. The PVDF membrane was then incubated with either antibodies against collagen I and III or the housekeeping protein α-tubulin (Santa Cruz Biotechnology, Santa Cruz, Calif.) for 18 hours at 4° C. Horseradish peroxidase-conjugated anti-goat antibody was used as secondary antibody. Signals were visualized by an enhanced chemiluminescence kit (Clonetech, Palo Alto, Calif., USA) followed by exposure to X-ray films.

[7] = test system: HCH cells; assay: Proline uptake assay; assay type: cell-based, human; details: astragalosides 0.1 μM, 24 h, Ctrl 1.00
Protocol: The proline uptake assay was carried out as described below, generally in accordance with the method disclosed in Biochim Biophys Acta. 1104:283-292, 1992, the contents of which are incorporated by reference. Briefly, HCH cells were seeded into a 24-well plate at a density of 3×10^4 cells per well and cultured for 24 hours. The cells were then treated in the absence (solvent control) or presence of the astragalosides (0.1 μM) or Astragalus membranaceous extracts (1.0 μg/mL) for another 24 hours. The treated cells were then washed once with PBS and incubated in amino acid free medium (AAFM) for another 30 min. The treated cells were then replaced with fresh AAFM containing 50 μg/mL of ascorbate and total of 0.5 mM of L-proline containing 1 μCi [^3H] Proline (American Radiolabelled Chemicals Inc, ARC, St. Louis, Mo., USA). At designated time intervals, the cells were washed with AAFM containing cold proline and then lysed in 200 μL of 2% SDS. Cell lysates were centrifuged at 15000 g for 15 min. Intracellular proline uptaken by the cells was determined by transferring 10 μL of the cell lysate to filter-bottomed UniFilter plates (Perkim-Elmer) and counting. The samples were measured for their protein concentrations using the BCA protein assay kit as described above. The amount of proline accumulated in the cells was calculated and normalized to protein concentration. And cellular uptake rate was expressed as nmole of L-proline per minute per […] of cell protein (nmole/min/μg).

[8] = test system: Type II Collagen; assay: Western blot of Type II Collagen in pre-treated human chondrocytes (HCHs); assay type: cell-based; details: PMA-pre-treated HCH culture medium; 0.1 μM, 48 h
[9] = test system: MMP-13; assay: Western blot of MMP-13 in pre-treated human chondrocytes (HCHs); assay type: cell-based; details: 0.1 μM, 48 h
[10] = test system: MMP-1; assay: Western blot of MMP-1 in pre-treated human chondrocytes (HCHs); assay type: cell-based; details: 0.1 μM, 48 h
[11] = test system: MMP1; details: UO126 10 μM, SP600125 25 μM, SB203580 5 μM, 24 h, then PMA 100 ng/mL 24 h
Protocol: The SW1353 cells were grown at 37° C. in a humidified incubator under 5% CO2 and 95% air in the culture medium as described above. The SW1353 cells were then sub-cultured into 6-well culture plates with serum free medium at an average amount of 2×10^5 cells per well and incubated for 24 hours. Then, the SW1353 cells were treated with 10 μM UO126 (MEK1-specific inhibitor), 25 μM, SP600125 (JNK-specific inhibitor), 5 μM SB203580 (p38-specific inhibitor), or 20 μM LY294002 (PI3K kinase inhibitor), and incubated for another 24 hours. Later, the SW1353 cells were treated with 100 ng/mL PMA and again incubated for 24 hours. Finally, the SW1353 cells were under cell extraction and the cell lysate was used for further luciferase analysis and western blotting analysis.
The SW1353 cells were grown at 37° C. in a humidified incubator under 5% CO2 and 95% air in the culture medium as described above. The SW1353 cells were then sub-cultured into 24-well culture plates and cultured for 24 hours. […] Following cell extraction, the cell lysate was centrifuged at 4° C., 20000 g for 30 minutes and then transferred to a 1.5 ml-microcentrifuge tube. Then, 100 μl buffer A (0.1 mM luciferin) and 350 μl buffer B (1 M MgSO4, 1 M Hepes (pH 7.8), 0.1 M ATP) were added into the microcentrifuge tube. The luciferase activity of final mixture was measured by a luminometer for 30 seconds.

[12] = PMA-pre-treated SW1353 cell extract
[13] = PMA-pre-treated SW1353 culture medium
[14] = PMA-pre-treated SW1353 cell extract, 0.1 μM
[15] = PMA-pre-treated SW1353 culture medium, 0.1 μM
[16] = PMA-pre-treated HCH cell extract
[17] = PMA-pre-treated HCH culture medium

`CC(=O)O[C@@H]1[C@@H](O)[C@H](O[C@H]2CC[C@]34C[C@]35CC[C@]3(C)[C@@H]([C@@]6(C)CC[C@@H](C(C)(C)O)O6)[C@@H](O)C[C@@]3(C)[C@@H]5C[C@H](O[C@@H]3O[C@H](CO)[C@@H](O)[C@H](O)[C@H]3O)[C@H]4C2(C)C)OC[C@H]1O` [IsoAS2, Isoastragaloside II] was tested, and the “MMP-1, Zymography, relative to Ctrl 1.00” value [1] was 0.95, the “MMP-13, Western blot, relative to Ctrl 1.00” value [2, 12] was 0.60 and the “MMP-13, Western blot, relative to Ctrl 1.00” value [2, 13] was 0.80. The “MMP-2, Zymography, relative to Ctrl 1.00” value [3] was 1.04, the “glucosamine uptake, Relative fold” value [4] was 1.07 fold and the “MMP-9, Zymography, relative to Ctrl 1.00” value [5] was 0.95. For the same molecule, the “MMP-1, Western blot, relative to Ctrl 1.00” value [6, 14] was 1.28, the “MMP-1, Western blot, relative to Ctrl 1.00” value [6, 15] was 0.77 and the “proline uptake, Relative fold” value [7] was 1.61 fold.
For `CC(C)(O)C1CC[C@](C)(C2[C@@H](O)C[C@@]3(C)C4C[C@H](OC5OC(CO)C(O)C(O)C5O)C5C(C)(C)[C@@H](O)CCC56CC46CC[C@]23C)O1` (stereo partly drawn) [AA, cycloastragenol 6-O-β-D-glucopyranose], the “Type II Collagen, Western blot, relative to Ctrl 1.00” value [8] was 1.42, the “MMP-13, Western blot, relative to Ctrl 1.00” value [9, 16] was 0.44 and the “MMP-13, Western blot, relative to Ctrl 1.00” value [9, 17] was 0.49. For the same molecule, the “MMP-13, Western blot, relative to Ctrl 1.00” value ([2]; IL-1β-pre-treated SW1353 culture medium) was 0.93, the “MMP-13, Western blot, relative to Ctrl 1.00” value [2, 13] was 0.84 and the “MMP-1, Western blot, relative to Ctrl 1.00” value [10, 16] was 0.44. For the same molecule, the “MMP-1, Western blot, relative to Ctrl 1.00” value [10, 17] was 0.44, the “glucosamine uptake, Relative fold” value [4] was 1.19 fold and the “MMP-1, Western blot, relative to Ctrl 1.00” value ([6]; IL-1β-pre-treated SW1353 cell extract, compounds 0.1 μM) was 0.74. The “MMP-1, Western blot, relative to Ctrl 1.00” value ([6]; IL-1β-pre-treated SW1353 culture medium, 0.1 μM) was 0.76, the “MMP-1, Western blot, relative to Ctrl 1.00” value [6, 15] was 0.52 and the “proline uptake, Relative fold” value [7] was 2.80 fold.
In the case of `C[S+]([O-])c1ccc(-c2nc(-c3ccncc3)c(-c3ccc(F)cc3)[nH]2)cc1` (stereo not shown) [SB203580], the “luciferase activity (control group 1 fold, PMA-only group 8 fold)” value [11] was 2 fold.
For `CC(=O)O[C@H]1[C@H](O[C@H]2CC[C@]34C[C@]35CC[C@]3(C)[C@@H]([C@@]6(C)CC[C@@H](C(C)(C)O)O6)[C@@H](O)C[C@@]3(C)[C@@H]5C[C@H](O[C@@H]3O[C@H](CO)[C@@H](O)[C@H](O)[C@H]3O)[C@H]4C2(C)C)OC[C@@H](OC(C)=O)[C@@H]1O` [IsoAS1, Isoastragaloside I], the “MMP-1, Zymography, relative to Ctrl 1.00” value [1] was 0.66, the “MMP-13, Western blot, relative to Ctrl 1.00” value [2, 12] was 1.19 and the “MMP-13, Western blot, relative to Ctrl 1.00” value [2, 13] was 1.03. The “MMP-2, Zymography, relative to Ctrl 1.00” value [3] was 1.01, the “glucosamine uptake, Relative fold” value [4] was 1.16 fold and the “MMP-9, Zymography, relative to Ctrl 1.00” value [5] was 0.85. For the same molecule, the “MMP-1, Western blot, relative to Ctrl 1.00” value [6, 14] was 0.67, the “MMP-1, Western blot, relative to Ctrl 1.00” value [6, 15] was 0.77 and the “proline uptake, Relative fold” value [7] was 2.82 fold.
